From US5359135A, “Triasulfurone compounds” (priority 1990, dated 1994)

How the values were obtained:
Assay type in all cases: binding, mouse (Balb/c)
[1] = system: MAb 4147-19-4; assay: competitive ELISA, triasulfurone and analogs with MAb 4147-19-4 (Table 1)
Text: (§1) As defined within the context of this invention, the percentage of cross-reactivity is represented by the following equation: [triasulfurone concentration for 50% inhibition (I50)/concentration of the triasulfurone analogs for 50% inhibition (I50)]×100.
(§2) The I50 value can be determined, for example, by means of a competitive ELISA assay (see Example 8). In that case the I50 value corresponds, for example, to the antigen concentration that leads to a 50% inhibition of the binding of the antibody to the carrier-bound antigen.
(§3) The detection of triasulfurone is effected by means of a two-step competitive ELISA test.
(§4) BSA-conjugated hapten, prepared in accordance with Example 1.3.1 or 1.3.2, in a 50mM sodium carbonate buffer (pH 9.6) (200 ng of BSA-conjugated hapten/100 μl of sodium carbonate buffer) is first of all adsorbed on microtitre plates (for example Dynatech, type M 129A) and incubated overnight at a temperature of 4° C. The plates are then washed five times with PBS buffer enriched with 0.1% (v/v) polysorbate 20 (Tween 20) (PBS Tween).
(§5) The remaining free binding sites of the solid carder material are then blocked by the addition of PBS-BSA in the form of a 1% (w/v) solution. After incubation for two hours at 22° C. the plates are washed again with PBS Tween (0.1%).
(§6) 50 μl of the supernatant of the previously cloned hybridoma cells (in a dilution of 1:2000 or 1:4000) or 50 μl of the previously purified monoclonal antibodies (40-120 ng/ml) are incubated a) with 950 μl of a standard solution containing an increasing amount of triasulfurone or of triasulfurone analogs, b) with triasulfurone-containing water samples or c) with triasulfurone-containing soil extracts. [All dilutions are carried out in PBS Tween (0.1%)].
(§7) After an incubation period of 1 hour at room temperature (22° C.), 200 μl of the antigen/antibody mixture are added to each well in the microtitre plate and the whole batch is incubated for a further one hour. The wells are then washed five times with PBS Tween (0.1%) and charged with 100 μl/well of goat anti-mouse IgG antibody that is conjugated to alkaline phosphatase (dilution 1:1500), and incubated for a period of 1.5 hours.
(§8) After washing again, 150 μl/well of the substrate p-nitrophenyl phosphate dissolved in 1 mg/ml of diethanolamine buffer ([…], pH 9.8, enriched with 0.5 mM MgCl2 ×6H2 O) are added to the wells.
(§9) The intensity of the colour reaction that has occurred is determined at a wavelength of 405 nm. […] All the samples are determined in triplicate.
(§10) In order to determine the amount of triasulfurone present in a sample, first of all a calibration curve is produced (FIG. 1), B/Bo×100 being plotted against the concentration of inhibitor. (Bo represents the absorption capacity measured without the addition of a triasulfurone inhibitor to the antibody, and B is the absorption capacity when triasulfurone inhibitors at various concentrations are added). The I50 value indicates the concentration of the antigen at which the binding of antibody to the solid phase is inhibited by 50%. The I50 value is determined using an ENZFITTER (Leatherbarrow, Elsevier-Biosoft) curve-calculation program based on a four-parameter logistical curve (Raab GM, 1983) and specially adapted to the prevailing conditions. The quantitative determination of triasulfurone in soil or water samples within the context of ELISA is also carried out using the ENZFITTER program, the adaptation of the curve being based on standards that run on any microtitre plate.

[2] = system: MAb 4134-40-1; assay: competitive ELISA, triasulfurone and analogs with MAb 4134-40-1 (Table 1)
Text: as §1, §2, §3, §4, §5, §6, §7, §8, §9, §10

[3] = system: MAb 4149-1-1; assay: competitive ELISA, triasulfurone and analogs with MAb 4149-1-1 (Table 1)
Text: as §1, §2, §3, §4, §5, §6, §7, §8, §9, §10

[4] = (triasulfurone conc. for 50% inhibition/analog conc. for 50% inhibition) × 100

With NC(=O)NS(=O)(=O)c1ccccc1OCCCl [S] the “I50 (inhibitor concentration that reduces the ELISA signal by 50% in comparison to the control)” value [1] was 2.6 ng/mL, the Cross-reactivity [1, 4] was 3.5% and the “I50 (inhibitor concentration that reduces the ELISA signal by 50% in comparison to the control)” value [2] was 6.0 ng/mL. The Cross-reactivity [2, 4] was 120.0%, the “I50 (inhibitor concentration that reduces the ELISA signal by 50% in comparison to the control)” value [3] was 0.02 ng/mL and the Cross-reactivity [3, 4] was 250.00%.
